Calls of active or inactive are those of the source.
What was measured:
Genome polyprotein [1] = target: Genome polyprotein (Hepatitis C virus, UniProt Q2Q167); test: disruption of hepatitis C core self-association – biochemical, TR-FRET, dose response (AID 2159); parameters: species or system Hepacivirus hominis;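 note: blocks dimerization of HCV core protein measured by TR-FRET between tagged core106 pairs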
[2] = target: T1, Zinc finger protein mex-5 (Caenorhabditis elegans, UniProt Q9XUB2); test: potency of MEX-5 RNA-binding blockers – biochemical, C. elegans, fluorescence polarization, dose response (AID 1960)
T1 sequence (Q9XUB2 whole entry): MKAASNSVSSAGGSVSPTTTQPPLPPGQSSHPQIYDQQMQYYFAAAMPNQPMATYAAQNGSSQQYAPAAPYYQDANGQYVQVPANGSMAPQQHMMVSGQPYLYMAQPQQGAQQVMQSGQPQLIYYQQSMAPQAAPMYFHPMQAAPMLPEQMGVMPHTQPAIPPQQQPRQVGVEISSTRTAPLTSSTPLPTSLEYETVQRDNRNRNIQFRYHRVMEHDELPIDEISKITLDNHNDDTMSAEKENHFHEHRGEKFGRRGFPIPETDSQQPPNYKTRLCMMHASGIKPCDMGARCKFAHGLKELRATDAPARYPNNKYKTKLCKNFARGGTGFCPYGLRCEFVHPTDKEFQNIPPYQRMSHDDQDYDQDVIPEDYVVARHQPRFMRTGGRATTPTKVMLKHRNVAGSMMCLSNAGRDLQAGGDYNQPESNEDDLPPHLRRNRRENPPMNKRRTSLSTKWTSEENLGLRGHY

[3] = Luminescent dose response cell-based high throughput screening assay for inhibitors of the Janus kinase 2 mutant JAK2V617F. [Related pubchem assays: 1446 (Primary screen.), 1521 (Confirmation assay.), 1486 (Counter screen.)]; assay type: functional
[4] = target: Heat shock protein HSP 90-alpha (Homo sapiens, UniProt P07900); test: Luminescence-based dose response biochemical high throughput screening assay for inhibitors of the Heat Shock Protein 90 (HSP90). [Related pubchem assays: 1831 (Summary AID.), 1846 (Confirmation screen.), 1789 (Primary screen.)]
[5] = target: T2, RNA-binding protein pos-1 (Caenorhabditis elegans, UniProt G5EF15); test: disruptors of C. elegans POS-1 RNA interaction – biochemical, fluorescence polarization, dose response (AID 1964);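 note: purified POS-1 fused to maltose binding protein made in E. coli; potency of compounds blocking POS-1 binding to fluorescent RNA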
T2 sequence (G5EF15 whole entry): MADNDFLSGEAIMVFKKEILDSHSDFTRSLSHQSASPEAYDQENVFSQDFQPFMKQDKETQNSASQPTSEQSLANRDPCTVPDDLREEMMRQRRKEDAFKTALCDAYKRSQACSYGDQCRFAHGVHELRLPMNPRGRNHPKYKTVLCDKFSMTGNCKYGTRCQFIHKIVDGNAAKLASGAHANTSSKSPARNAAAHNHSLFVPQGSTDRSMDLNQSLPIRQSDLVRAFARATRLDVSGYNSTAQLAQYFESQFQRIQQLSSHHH

NADPH oxidase 1 [6] = target: T3, NADPH oxidase 1 (Homo sapiens, UniProt Q9Y5S8); assay type: functional, cell-based
T3 sequence (Q9Y5S8 whole entry): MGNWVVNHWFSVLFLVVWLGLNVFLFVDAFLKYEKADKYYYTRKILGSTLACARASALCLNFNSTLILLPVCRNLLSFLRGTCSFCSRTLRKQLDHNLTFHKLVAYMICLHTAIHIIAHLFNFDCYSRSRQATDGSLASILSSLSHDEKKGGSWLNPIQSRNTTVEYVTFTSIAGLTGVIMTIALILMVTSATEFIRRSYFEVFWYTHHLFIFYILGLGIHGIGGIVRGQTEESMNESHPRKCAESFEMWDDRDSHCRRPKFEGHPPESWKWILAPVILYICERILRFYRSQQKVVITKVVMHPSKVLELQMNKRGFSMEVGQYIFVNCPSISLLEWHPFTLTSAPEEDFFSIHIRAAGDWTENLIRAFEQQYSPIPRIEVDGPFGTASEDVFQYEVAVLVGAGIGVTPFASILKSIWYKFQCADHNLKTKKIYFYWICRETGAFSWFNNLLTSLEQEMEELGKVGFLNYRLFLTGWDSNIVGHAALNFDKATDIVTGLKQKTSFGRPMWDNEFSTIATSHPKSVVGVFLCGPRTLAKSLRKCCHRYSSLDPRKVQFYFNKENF

NADPH oxidase 1 [7] = target: T3, NADPH oxidase 1; test: Late-stage luminescence-based cell-based dose response assay to identify inhibitors of NADPH oxidase 1 (NOX1): Purchased analogs 2.; assay type: functional
[8] = target: E3 ubiquitin-protein ligase Mdm2 (Homo sapiens, UniProt Q00987); test: MDM2-luc reporter signal enhancers, multi-concentration potency testing, MDM2 ubiquitin-protein ligase inhibitor program, whole-cell format, luminescence detection, 384-well microplate (AID 1394); assay type: functional;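 note: MDM2 E3 inhibitors raise luminescence so EC50 is for signal enhancement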
Sequence of E3 ubiquitin-protein ligase Mdm2 (Q00987 whole entry, the tested form may be a part): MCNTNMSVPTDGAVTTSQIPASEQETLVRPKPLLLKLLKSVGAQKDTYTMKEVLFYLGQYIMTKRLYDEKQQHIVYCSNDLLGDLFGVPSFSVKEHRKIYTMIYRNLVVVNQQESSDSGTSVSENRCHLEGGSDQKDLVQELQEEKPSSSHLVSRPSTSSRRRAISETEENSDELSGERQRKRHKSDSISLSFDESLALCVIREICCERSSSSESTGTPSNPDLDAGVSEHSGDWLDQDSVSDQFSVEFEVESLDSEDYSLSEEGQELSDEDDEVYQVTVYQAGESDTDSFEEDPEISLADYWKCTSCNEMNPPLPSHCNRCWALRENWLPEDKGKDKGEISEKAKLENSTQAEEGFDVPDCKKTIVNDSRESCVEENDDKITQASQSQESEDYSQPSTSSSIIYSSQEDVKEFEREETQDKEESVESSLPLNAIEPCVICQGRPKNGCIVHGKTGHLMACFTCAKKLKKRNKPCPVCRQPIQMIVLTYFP

[9] = target: T4, Type-1 angiotensin II receptor (Homo sapiens, UniProt P30556); test: agonist activity at AGTR1 – cell-based, uHTS hits, selectivity assay for APJ receptor agonist project, dose response (AID 488865); assay type: functional;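 note: beta-arrestin recruitment to AT1 measured by enzyme fragment complementation luminescence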
T4 sequence (P30556 whole entry): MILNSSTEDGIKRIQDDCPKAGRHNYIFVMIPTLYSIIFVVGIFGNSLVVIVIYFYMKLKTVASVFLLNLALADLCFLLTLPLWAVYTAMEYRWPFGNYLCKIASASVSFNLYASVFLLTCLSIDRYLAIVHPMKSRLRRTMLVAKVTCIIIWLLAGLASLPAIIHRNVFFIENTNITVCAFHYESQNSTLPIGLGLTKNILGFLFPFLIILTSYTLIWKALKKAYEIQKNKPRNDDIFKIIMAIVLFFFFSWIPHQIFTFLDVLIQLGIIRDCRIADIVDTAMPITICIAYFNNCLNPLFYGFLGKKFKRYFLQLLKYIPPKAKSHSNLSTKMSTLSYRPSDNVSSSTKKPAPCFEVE

Vero [10] = test: mammalian cell viability reduction – secondary assay, cytotoxicity control for West Nile virus antiviral project, dose response (AID 1650); assay type: functional; details: Chlorocebus sabaeus
[11] = M. tuberculosis growth inhibition, HTS (AID 449762); assay type: functional
[12] = M. tuberculosis H37Rv growth inhibitors, H37Rv strain (AID 1626); assay type: functional
Aspartyl aminopeptidase = Aspartyl aminopeptidase (Plasmodium falciparum 3D7, UniProt Q8I2J3); test: Counterscreen for inhibitors of M1 and M17 aminopeptidases: QFRET-based biochemical high throughput dose response assay for inhibitors of the Plasmodium falciparum M18 Aspartyl Aminopeptidase (PFM18AAP). [Related PubChem assays: 1619 (Screening assay (M17LAP inhibitors).), 1445 (Screening assay (M1AAP inhibitors).)]
Sequence of Aspartyl aminopeptidase (Q8I2J3 whole entry): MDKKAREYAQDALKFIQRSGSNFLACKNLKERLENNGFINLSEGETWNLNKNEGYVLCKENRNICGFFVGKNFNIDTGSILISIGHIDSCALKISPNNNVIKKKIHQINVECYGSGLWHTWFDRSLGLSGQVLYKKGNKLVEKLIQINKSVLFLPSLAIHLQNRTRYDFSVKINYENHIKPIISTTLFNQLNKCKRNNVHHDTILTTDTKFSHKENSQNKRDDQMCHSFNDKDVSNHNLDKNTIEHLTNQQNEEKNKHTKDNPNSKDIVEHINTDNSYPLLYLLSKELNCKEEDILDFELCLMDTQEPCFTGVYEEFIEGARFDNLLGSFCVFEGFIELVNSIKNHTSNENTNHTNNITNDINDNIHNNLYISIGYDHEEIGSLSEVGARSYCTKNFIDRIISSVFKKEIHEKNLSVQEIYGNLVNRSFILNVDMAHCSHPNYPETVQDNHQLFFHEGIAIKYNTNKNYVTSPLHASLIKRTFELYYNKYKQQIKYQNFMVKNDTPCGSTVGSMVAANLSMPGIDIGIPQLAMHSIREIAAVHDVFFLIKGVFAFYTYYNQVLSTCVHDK

Leucine aminopeptidase = target: T5, Leucine aminopeptidase (Plasmodium falciparum 3D7, UniProt Q8IL11); test: P. falciparum M17LAP inhibitors, primary screen, biochemical, fluorogenic H-Leu-NHMec substrate, 1536-well (AID 1619); assay type: functional
T5 sequence (Q8IL11 whole entry): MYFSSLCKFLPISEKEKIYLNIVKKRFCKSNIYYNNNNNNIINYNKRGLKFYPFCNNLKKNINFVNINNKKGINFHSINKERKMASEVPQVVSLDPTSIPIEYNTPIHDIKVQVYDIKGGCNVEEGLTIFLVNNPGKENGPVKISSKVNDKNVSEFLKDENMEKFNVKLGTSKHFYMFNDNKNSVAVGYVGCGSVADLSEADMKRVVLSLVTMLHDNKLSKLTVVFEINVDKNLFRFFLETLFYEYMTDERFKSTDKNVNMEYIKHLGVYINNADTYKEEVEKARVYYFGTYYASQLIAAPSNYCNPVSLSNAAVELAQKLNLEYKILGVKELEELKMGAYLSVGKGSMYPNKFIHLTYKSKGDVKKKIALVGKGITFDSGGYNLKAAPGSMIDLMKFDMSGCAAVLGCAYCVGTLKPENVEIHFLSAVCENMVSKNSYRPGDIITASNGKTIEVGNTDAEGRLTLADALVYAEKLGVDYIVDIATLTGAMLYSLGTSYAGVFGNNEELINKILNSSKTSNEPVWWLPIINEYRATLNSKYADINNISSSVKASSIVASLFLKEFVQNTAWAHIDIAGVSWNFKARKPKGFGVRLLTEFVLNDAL

Procathepsin L = Procathepsin L (Homo sapiens, UniProt P07711); test: CTSL1 protease inhibition – biochemical, QFRET, 1536-well, counter-screen for M1/M17 aminopeptidase inhibitor project, dose response (AID 2214)
Sequence of Procathepsin L (P07711 whole entry): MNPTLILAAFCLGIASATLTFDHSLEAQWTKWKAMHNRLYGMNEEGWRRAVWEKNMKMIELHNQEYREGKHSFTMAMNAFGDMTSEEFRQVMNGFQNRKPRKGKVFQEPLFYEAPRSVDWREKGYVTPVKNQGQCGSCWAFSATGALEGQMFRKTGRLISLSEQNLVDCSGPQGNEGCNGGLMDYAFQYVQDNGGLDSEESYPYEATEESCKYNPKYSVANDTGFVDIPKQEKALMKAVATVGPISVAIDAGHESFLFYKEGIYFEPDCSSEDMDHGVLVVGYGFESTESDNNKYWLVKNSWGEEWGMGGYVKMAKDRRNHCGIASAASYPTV

[13] = target: T6, Probable nicotinate-nucleotide adenylyltransferase (Staphylococcus aureus (strain N315), UniProt P65502); assay type: functional, Staphylococcus aureus subsp. aureus N315;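 for IC50 Mean: confirmatory dose-response retesting of NadD inhibitor hits first found in an ultra-high-throughput screen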
T6 sequence (P65502 whole entry): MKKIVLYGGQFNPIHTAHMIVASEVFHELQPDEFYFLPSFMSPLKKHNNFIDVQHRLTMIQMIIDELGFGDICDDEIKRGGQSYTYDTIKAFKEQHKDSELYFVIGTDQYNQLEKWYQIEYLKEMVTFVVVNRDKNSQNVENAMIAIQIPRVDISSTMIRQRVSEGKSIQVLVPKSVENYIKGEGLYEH

[14] = target: T6, Probable nicotinate-nucleotide adenylyltransferase; assay type: functional, Staphylococcus aureus subsp. aureus N315; details: read-out: IC50_Mean
[15] = target: T7, Histone-lysine N-methyltransferase NSD2 (Homo sapiens, UniProt O96028); assay type: biochemical
T7 sequence (O96028 whole entry): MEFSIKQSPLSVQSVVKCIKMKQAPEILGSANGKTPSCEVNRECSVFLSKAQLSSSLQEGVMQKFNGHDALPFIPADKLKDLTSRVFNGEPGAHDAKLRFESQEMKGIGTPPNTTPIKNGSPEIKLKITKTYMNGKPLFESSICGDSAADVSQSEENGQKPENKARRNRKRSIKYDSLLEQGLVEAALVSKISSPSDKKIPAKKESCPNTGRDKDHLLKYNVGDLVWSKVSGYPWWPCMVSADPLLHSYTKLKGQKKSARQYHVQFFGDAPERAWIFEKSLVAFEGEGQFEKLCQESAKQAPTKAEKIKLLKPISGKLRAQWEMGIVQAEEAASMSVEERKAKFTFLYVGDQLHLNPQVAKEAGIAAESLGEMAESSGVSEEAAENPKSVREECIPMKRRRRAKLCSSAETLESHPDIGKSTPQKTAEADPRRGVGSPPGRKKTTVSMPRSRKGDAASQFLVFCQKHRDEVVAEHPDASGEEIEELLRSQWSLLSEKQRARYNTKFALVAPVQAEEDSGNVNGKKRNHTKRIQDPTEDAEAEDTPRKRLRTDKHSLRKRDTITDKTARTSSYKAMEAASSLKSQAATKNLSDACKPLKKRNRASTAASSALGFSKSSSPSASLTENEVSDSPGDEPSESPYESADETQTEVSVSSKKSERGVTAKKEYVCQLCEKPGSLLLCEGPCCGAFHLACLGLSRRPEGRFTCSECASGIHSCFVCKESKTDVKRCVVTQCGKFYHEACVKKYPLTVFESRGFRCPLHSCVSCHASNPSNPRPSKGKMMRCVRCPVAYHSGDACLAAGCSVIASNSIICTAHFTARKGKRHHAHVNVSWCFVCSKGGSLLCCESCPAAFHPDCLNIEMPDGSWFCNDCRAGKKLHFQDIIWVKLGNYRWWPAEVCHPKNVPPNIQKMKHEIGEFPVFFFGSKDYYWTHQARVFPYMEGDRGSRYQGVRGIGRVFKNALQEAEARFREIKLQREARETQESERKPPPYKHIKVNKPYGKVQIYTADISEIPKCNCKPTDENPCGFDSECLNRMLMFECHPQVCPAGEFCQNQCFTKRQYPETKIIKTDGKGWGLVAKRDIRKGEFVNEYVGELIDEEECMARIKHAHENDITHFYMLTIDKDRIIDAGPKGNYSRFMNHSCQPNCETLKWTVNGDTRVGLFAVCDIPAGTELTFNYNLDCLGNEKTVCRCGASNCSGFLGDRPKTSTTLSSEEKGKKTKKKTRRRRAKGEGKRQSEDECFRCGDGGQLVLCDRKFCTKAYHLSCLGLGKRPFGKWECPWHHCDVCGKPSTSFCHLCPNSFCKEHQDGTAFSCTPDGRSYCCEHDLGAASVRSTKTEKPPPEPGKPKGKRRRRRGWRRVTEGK

Vero [16] = test: viability of Vero cells under compound – cytotoxicity control for flavivirus capping enzyme inhibitors (AID 588742); assay type: functional; details: Chlorocebus sabaeus
[17] = target: Eukaryotic translation initiation factor 4E (Mus musculus, UniProt P63073); test: blockers of eIF4G binding by eIF4E – biochemical, TR-FRET, dose response (AID 855); assay type: functional;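 note: potency for disrupting eIF4E binding to eIF4GI seen as loss of FRET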
Sequence of Eukaryotic translation initiation factor 4E (P63073 whole entry): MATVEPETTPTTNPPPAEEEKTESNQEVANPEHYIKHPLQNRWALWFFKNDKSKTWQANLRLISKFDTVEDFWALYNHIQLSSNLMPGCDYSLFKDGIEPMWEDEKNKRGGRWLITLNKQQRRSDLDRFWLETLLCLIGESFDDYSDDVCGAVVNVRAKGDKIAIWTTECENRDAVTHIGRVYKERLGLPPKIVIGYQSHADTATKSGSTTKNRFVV

Genome polyprotein [18] = target: Genome polyprotein (dengue virus type 2, UniProt P29990); test: flavivirus cap methylation enzyme inhibition – biochemical, confirmation dose response, primary screen (AID 588689); assay type: functional
Sequence of Genome polyprotein (dengue virus type 2, UniProt P29990) (P29990 2492-3391 limits assumed): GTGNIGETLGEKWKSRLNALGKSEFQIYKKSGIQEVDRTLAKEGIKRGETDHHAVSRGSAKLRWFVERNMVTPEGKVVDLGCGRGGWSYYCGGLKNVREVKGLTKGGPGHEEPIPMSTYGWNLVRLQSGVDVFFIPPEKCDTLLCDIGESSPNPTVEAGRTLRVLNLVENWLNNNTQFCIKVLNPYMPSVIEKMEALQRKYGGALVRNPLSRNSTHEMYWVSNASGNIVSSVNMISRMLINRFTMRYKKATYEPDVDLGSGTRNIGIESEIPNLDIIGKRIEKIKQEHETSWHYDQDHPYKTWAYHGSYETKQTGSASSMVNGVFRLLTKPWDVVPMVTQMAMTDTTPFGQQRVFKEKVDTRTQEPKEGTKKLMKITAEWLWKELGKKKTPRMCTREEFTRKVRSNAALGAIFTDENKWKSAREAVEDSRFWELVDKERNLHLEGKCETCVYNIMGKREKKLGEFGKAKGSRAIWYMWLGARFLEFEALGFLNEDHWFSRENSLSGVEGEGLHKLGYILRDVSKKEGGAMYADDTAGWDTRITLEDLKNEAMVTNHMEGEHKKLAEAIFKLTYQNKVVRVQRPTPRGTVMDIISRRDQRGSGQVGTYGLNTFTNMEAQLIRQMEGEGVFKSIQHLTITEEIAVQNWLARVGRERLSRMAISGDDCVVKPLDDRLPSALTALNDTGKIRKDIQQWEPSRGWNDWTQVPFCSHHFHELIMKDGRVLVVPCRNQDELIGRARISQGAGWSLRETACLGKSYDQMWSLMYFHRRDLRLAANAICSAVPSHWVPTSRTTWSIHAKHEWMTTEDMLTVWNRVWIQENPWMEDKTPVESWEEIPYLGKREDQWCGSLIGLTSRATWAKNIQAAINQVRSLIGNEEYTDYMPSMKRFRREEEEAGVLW

[19] = RAM pathway signaling blockade in S. cerevisiae – dose response (AID 1307); assay type: functional
Nonstructural protein 1 = Nonstructural protein 1 (Influenza A virus, UniProt Q194T2); assay type: functional, Influenza A virus (A/California/07/2009(H1N1))
Sequence of Nonstructural protein 1 (Q194T2 whole entry): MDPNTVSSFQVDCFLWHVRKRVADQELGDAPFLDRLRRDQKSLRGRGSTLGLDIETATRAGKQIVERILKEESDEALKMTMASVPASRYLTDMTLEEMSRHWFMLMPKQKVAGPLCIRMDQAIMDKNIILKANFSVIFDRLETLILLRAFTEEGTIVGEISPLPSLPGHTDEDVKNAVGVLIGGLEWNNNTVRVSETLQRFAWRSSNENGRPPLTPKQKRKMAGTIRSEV

Sequence of Genome polyprotein (Hepatitis C virus, UniProt Q2Q167) (Q2Q167 whole entry): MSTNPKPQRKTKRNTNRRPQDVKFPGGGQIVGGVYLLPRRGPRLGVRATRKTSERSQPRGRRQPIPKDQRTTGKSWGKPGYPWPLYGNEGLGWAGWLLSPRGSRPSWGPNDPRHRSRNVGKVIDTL

Q: Which IC50 (Genome polyprotein [1]) does the source give for `NS(=O)(=O)c1ccc(NC(=O)c2ccc(S(=O)(=O)N3CCc4ccccc43)cc2)cc1` here?
A: > 49.8 µM (not active)

Q: With `O=c1oc2ccc(Cl)cc2nc1/C=C(\O)c1ccco1` as the compound, how does the EC50 [2] read?
A: > 300 µM (not active)

Q: What about the IC50 [3] of the same compound?
A: 1.5 µM (active)

Q: What about the IC50 [4] of the same compound?
A: 2.73 µM (active)

Q: What about the EC50 [5] of the same compound?
A: > 300 µM (not active)

Q: For `C(=N\Nc1ccccc1)/c1ccccc1`, which IC50 (NADPH oxidase 1 [6]) is on record?
A: 13 µM (active)

Q: With `CC(=O)Nc1ccc(CC(=O)Nc2ccc(Oc3ccc(Br)cc3)cc2)cc1` as the compound, how does the IC50 (NADPH oxidase 1 [7]) read?
A: > 17 µM (not active)

Q: With `CC(=O)c1ccc(OCC(O)Cn2nnc3ccccc32)cc1` (stereo not drawn) as the compound, how does the EC50 [8] read?
A: 12.7 µM (not active)

Q: With `CCOC(=O)N1CCN(S(=O)(=O)c2ccc(C(=O)N(CCCN(C)C)c3nc4ccc(Cl)cc4s3)cc2)CC1` as the compound, how does the EC50 [9] read?
A: > 100 µM (inactive)

Q: What about the CC50 (Vero [10]) of the same compound?
A: 10.1 µM (active)

Q: Which IC50 [11] does the source give for `CCOC(=O)N1CCN=C1SCc1ccc(C(F)(F)F)cc1` here?
A: > 100 µM (active)

Q: What about the IC50 [12] of the same compound?
A: > 100 µM (active)

Q: With `CCn1c2ccccc2c2cc(NC(=O)CSc3nccc(O)n3)ccc21` as the compound, how does the IC50 (Aspartyl aminopeptidase) read?
A: > 73.5 µM (not active)

Q: And the IC50 (Leucine aminopeptidase)?
A: 1.41 µM (active)

Q: What about the IC50 (Procathepsin L) of the same compound?
A: > 59.6 µM (not active)

Q: And the IC50 [13]?
A: 15.3 µM (active)

Q: And the IC50 [14]?
A: 42.4 µM (active)

Q: What does the source list for `Cc1cc(C)c(Nc2cc(S(=O)(=O)O)c(N)c3c2C(=O)c2ccccc2C3=O)c(C)c1` [ACID BLUE 129]?
A: AC50 [15]: 3.75 µM (active); CC50 (Vero [16]): > 40 µM (active); IC50 [17]: 26.1 µM (inactive); IC50 (Genome polyprotein [18]): 21.5 µM (active); IC50 [19]: 139 µM (active); IC50 (Nonstructural protein 1): 3.96 µM (active)

— ChEMBL document CHEMBL1201862, “PubChem BioAssay data set” (2004)
